Paper PMC6405874, “Development of a novel short 12-meric papiliocin-derived peptide that is effective against Gram-negative sepsis” (Scientific Reports, 2019)
In brackets after ≈: the same amount, converted by molar mass. No end group written: not given here.

Key:
Gram-negative bacteria = details: eight Gram-negative strains of Table 2
Description: (§1) The antimicrobial activities of Pap12 peptides were tested against four standard Gram-negative bacteria (E. coli, Pseudomonas aeruginosa, Acinetobacter baumannii, and Salmonella typhimurium), three standard Gram-positive bacteria (Staphylococcus aureus, Bacillus subtilis, and Staphylococcus epidermidis), and five MDR bacteria (MDREC CCARM 1229, MDRPA CCARM 2002, MDRAB CCARM 12035, MDRST CCARM 8007, and MRSA CCARM 3126) using the microbroth dilution method. The relative antibacterial activities were compared based on geometric means of MICs (GM).
(§2) The therapeutic index (TI) was calculated (Table 2) using HC10, the peptide concentration required to induce 10% hemolysis.
(§3) Peptides were treated with 2 × 10^6 CFU/mL bacterial suspensions in 1% peptone media for 16 h at 37 °C.

Gram-positive bacteria = details: four Gram-positive strains of Table 2
Description: as §1, §2, §3

[1] = system: human red blood cells (hRBCs); assay: Hemolysis of human red blood cells
Description: as §2
The toxicity of peptides to human red blood cells (hRBCs) was determined by measuring the peptide-induced release of haem, and percent hemolysis was calculated as described previously. The peptide-induced cytotoxicity of mouse RAW 264.7 macrophages, human keratinocyte HaCaT cells, and HEK-293 cells were determined by 3-(4,5-dimethylthiazol-2-yl)-2,5-diphenyltetrazolium bromide (MTT) assays as previously described.

[2] = system: mouse macrophage RAW 264.7 cells; assay: MTT cytotoxicity; assay type: cell-based; details: for cell survival: RAW 264.7, MTT
Description: (§4) The toxicities of peptides against mammalian cells were checked by measuring the survival rate of mouse macrophage RAW 264.7 cells, human keratinocyte HaCaT cells, and HEK-293 human embryonic kidney epithelial (HEK-293) cells after treatment with different concentrations of peptides (Fig. 2B–D). […] Since melittin has higher hydrophobicity and a […] amphiphatic moment (µH) than those of Pap12 peptides, as listed in Table 1, its toxicity is much higher than those of Pap12 peptides.

[3] = system: MDRAB 12035 (MDR A. baumannii CCARM 12035); details: 1% peptone, 2 × 10^6 CFU/mL, 16 h, 37 °C
Description: as §1
(§5) Escherichia coli (KCTC 1682), Pseudomonas aeruginosa (KCTC 2004), Acinetobacter baumannii (KCTC 2508), Salmonella typhimurium (KCTC 1926), Bacillus subtilis (KCTC 3068), Staphylococcus aureus (KCTC 1621), and Staphylococcus epidermidis (KCTC 1917) were purchased from the Korean Collection for Type Cultures, Korea Research Institute of Bioscience & Biotechnology (Taejon, Korea). Clinical isolates of MDR E. coli (MDREC; CCARM 1229), P. aeruginosa (MDRPA; CCARM 2002), A. baumannii (MDRAB; CCARM 12035), S. typhimurium (MDRST; CCARM 8007), and S. aureus (MDRSA; CCARM 3126) were supplied by the Culture Collection of Antibiotic-Resistant Microbe (CCARM) at Seoul Women’s University in Korea. The E. coli K1 strain RS218 (O18:K1:H7) was kindly provided by Dr. Jang-Won Yoon of Kangwon National University (Gangwon-do, Korea).
as §3

[4] = system: S. epidermidis (KCTC 1917); details: 1% peptone, 2 × 10^6 CFU/mL, 16 h, 37 °C
Description: as §1, §5, §3

[5] = system: MDRST 8007 (MDR S. typhimurium CCARM 8007); details: 1% peptone, 2 × 10^6 CFU/mL, 16 h, 37 °C
Description: as §1, §5, §3

[6] = system: MDRPA 2002 (MDR P. aeruginosa CCARM 2002); details: 1% peptone, 2 × 10^6 CFU/mL, 16 h, 37 °C
Description: as §1, §5, §3

[7] = system: MDREC 1229 (MDR E. coli CCARM 1229); details: 1% peptone, 2 × 10^6 CFU/mL, 16 h, 37 °C
Description: as §1, §5, §3

A. baumannii (KCTC 2508) = details: 1% peptone, 2 × 10^6 CFU/mL, 16 h, 37 °C
Description: as §1, §5, §3

MRSA 3126 (CCARM 3126) = details: 1% peptone, 2 × 10^6 CFU/mL, 16 h, 37 °C
Description: as §1, §5, §3

[8] = system: S. typhimurium (KCTC 1926); details: 1% peptone, 2 × 10^6 CFU/mL, 16 h, 37 °C
Description: as §1, §5, §3

E. coli (KCTC 1682) = details: 1% peptone, 2 × 10^6 CFU/mL, 16 h, 37 °C
Description: as §1, §5, §3

B. subtilis (KCTC 3068) = details: 1% peptone, 2 × 10^6 CFU/mL, 16 h, 37 °C
Description: as §1, §5, §3

[9] = system: P. aeruginosa (KCTC 2004); details: 1% peptone, 2 × 10^6 CFU/mL, 16 h, 37 °C
Description: as §1, §5, §3

S. aureus (KCTC 1621) = details: 1% peptone, 2 × 10^6 CFU/mL, 16 h, 37 °C
Description: as §1, §5, §3

[10] = system: HEK-293 human embryonic kidney epithelial cells; assay: MTT cytotoxicity; assay type: cell-based; details: HEK-293, MTT, 50 µM
Description: as §4

[11] = system: human keratinocyte HaCaT cells; assay: MTT cytotoxicity; assay type: cell-based; details: 50 µM
Description: as §4

[12] = Survival of non-infected mice given peptide (acute toxicity); assay type: in vivo, BALB/c mice; details: 10 mg/kg i.p., over 4 days, 10 mice
Description: To determine the in vivo survival rate, four groups were established with 10 BALB/c mice per group. For the control group, 10 mice were given an intraperitoneal (i.p.) injection with PBS. […] In the third group, 10 mice were i.p. injected with Pap12-6 (10 mg/kg). […] Survival was evaluated for 4 days (0, 6, 12, 18, 24, 30, 36, 48, 60, 72, 84, and 96 h).

| Compound | GM, geometric mean of MICs, Gram-negative bacteria (Gram-negative bacteria) [µM] | GM, geometric mean of MICs, Gram-positive bacteria (Gram-positive bacteria) [µM] | Minimal inhibitory concentration (MIC), MDRAB 12035 [3] [µM] | Minimal inhibitory concentration (MIC), S. epidermidis [4] [µM] | Minimal inhibitory concentration (MIC), MDRST 8007 [5] [µM] | Minimal inhibitory concentration (MIC), MDRPA 2002 [6] [µM] | Minimal inhibitory concentration (MIC), MDREC 1229 [7] [µM] | Minimal inhibitory concentration (MIC), A. baumannii (A. baumannii (KCTC 2508)) [µM] | Minimal inhibitory concentration (MIC), MRSA 3126 (MRSA 3126 (CCARM 3126)) [µM] | HC10, peptide concentration resulting in 10% hemolysis of fresh human erythrocytes [1] [µM] | Minimal inhibitory concentration (MIC), S. typhimurium [8] [µM] | Minimal inhibitory concentration (MIC), E. coli (E. coli (KCTC 1682)) [µM] | Minimal inhibitory concentration (MIC), B. subtilis (B. subtilis (KCTC 3068)) [µM] | Minimal inhibitory concentration (MIC), P. aeruginosa [9] [µM] | Minimal inhibitory concentration (MIC), S. aureus (S. aureus (KCTC 1621)) [µM] | other results |
| --- | --- | --- | --- | --- | --- | --- | --- | --- | --- | --- | --- | --- | --- | --- | --- | --- |
| CC[C@H](C)[C@H](NC(=O)CN)C(=O)NCC(=O)N[C@@H](C)C(=O)N[C@H](C(=O)N[C@@H](CC(C)C)C(=O)N[C@@H](CCCCN)C(=O)N[C@H](C(=O)N[C@@H](CC(C)C)C(=O)N[C@H](C(=O)N[C@H](C(=O)NCC(=O)N[C@@H](CC(C)C)C(=O)N1CCC[C@H]1C(=O)N[C@@H](C)C(=O)N[C@@H](CC(C)C)C(=O)N[C@H](C(=O)N[C@@H](CO)C(=O)N[C@@H](Cc1c[nH]c2ccccc12)C(=O)N[C@H](C(=O)N[C@@H](CCCCN)C(=O)N[C@@H](CCCNC(=N)N)C(=O)N[C@@H](CCCCN)C(=O)N[C@@H](CCCNC(=N)N)C(=O)N[C@@H](CCC(N)=O)C(=O)N[C@@H](CCC(N)=O)C(N)=O)[C@@H](C)CC)[C@@H](C)CC)[C@@H](C)O)[C@@H](C)O)C(C)C)C(C)C [Melittin, reference compound] | 6 | 3 | 4 (≈ 11.4 µg/mL) | 4 (≈ 11.4 µg/mL) | 8 (≈ 22.8 µg/mL) | 4 (≈ 11.4 µg/mL) | 8 (≈ 22.8 µg/mL) | 8 (≈ 22.8 µg/mL) | 2 (≈ 5.69 µg/mL) | – | – | – | – | – | – | toxicity against hRBCs (in words) ([1]; hRBCs): highly toxic; cytotoxicity against mammalian cells (in words) ([2]; MTT, RAW 264.7, HaCaT and HEK-293 cells (Fig. 2B-D)): displayed cytotoxicity at very low concentrations |
| RWKIFKKAAKKA-NH2 [Pap12-4] | 22 | 22 | 16 | 32 | 16 | 32 | 32 | 32 | 32 | 200 | 32 | 8 | 16 | 8 | 8 | – |
| RWKIFKKAAKKG-NH2 [Pap12-2] | 18 | 20 | 16 | 32 | 16 | 16 | 32 | 32 | 16 | 200 | 16 | 8 | 16 | 8 | 16 | – |
| RWKIFKKIEKVG-NH2 [Pap12-1] | 35 | 52 | 16 | 64 | 32 | 16 | 64 | 64 | 64 | 200 | 64 | 16 | 64 | 8 | 16 | – |
| RWKIFKKVVKKA-NH2 [Pap12-5] | 14 | 14 | 8 | 16 | 16 | 16 | 16 | 8 | 16 | 200 | 32 | 8 | 16 | 8 | 8 | – |
| RWKIFKKVVKKG-NH2 [Pap12-3] | 16 | 14 | 16 | 16 | 16 | 32 | 16 | 16 | 16 | 200 | 16 | 8 | 16 | 8 | 8 | – |
| RWKIFKKVVKKW-NH2 [Pap12-6] | 6 | 7 | 4 | 8 | 8 | 8 | 8 | 4 | 8 | 100 | 8 | 4 | 8 | 4 | 4 | cytotoxicity (in words) [10]: no cytotoxicity; cell survival ([2]; 50 µM): 80%; cell survival ([2]; up to 25 µM): 100%; cytotoxicity (in words) [11]: no cytotoxicity; survival of non-infected mice (lack of acute toxicity) [12]: all mice survived |
